Experimental data from patent US9381203B2, “Combination therapies for treatment of laminopathies, cellular aging, and atherosclerosis” (priority 2013, dated 2016).

Tested on: HGPS patients
Assay: Kaplan-Meier survival analysis of treated vs. untreated HGPS patients
Type: in vivo, human
Text: Survival data of untreated subjects was collected from hospital case studies, newspaper articles, and other publicly available databases. “Untreated subjects” were defined as HGPS-diagnosed subjects who had no exposure to HGPS clinical treatment trial medications. In total, data from 155 subjects; including 100 deceased and 55 living, was used in the analysis, the cut-off date for which was Dec. 3, 2012.
“Treated subjects” were defined as all subjects who were enrolled in one or both of two HGPS farnesyltransferase inhibitor (FTI) clinical treatment trials to date, for any length of time. Treatment conditions for the initial, FTI-only, trial are described in Gordon et al., PNAS, 109:16666/16671, 2012. Treatment conditions for the three-drug combination of lonafarnib, pravastatin, and zoledronic acid, are described in Example 1. In total data from 43 subjects; including 4 deceased and 39 living, was included in the analysis.
Kaplan-Meier survival analyses were carried out using SAS statistical analysis software.

NC(=O)N1CCC(CC(=O)N2CCC([C@H]3c4ncc(Br)cc4CCc4cc(Cl)cc(Br)c43)CC2)CC1 [FTI, lonafarnib]
Mean years of survival, treated vs. untreated (all subject groupings of FIG. 5, FTI only or with pravastatin and zoledronic acid): significant increase in mean years of survival | Survival of treated vs. untreated patients (Kaplan-Meier) (entire sample, 43 treated (FTI only or with pravastatin and zoledronic acid) vs. 155 untreated, FIG. 1): significant survival benefit
